Patent US4474780A, “Crystalline cephalosporin” (Eli Lilly and Company, priority 1983, dated 1984)
Where two headings read alike, the source gives them in different places.

Tests used:
[1] = background statement; cited from earlier work
[2] = background statement; cited from earlier work; remark: listed apart in the source
gram positive = conditions: background statement; cited from earlier work
[3] = Solubility (saturated solution in water at 37° C.); format: physicochemical; conditions: for solubility: water, 37° C.
Procedure: For example, the compound forms a saturated solution in water at 37° C. according to the following table: […]

[4] = Titration (66% N,N-dimethylformamide/water); format: physicochemical; conditions: 66% dmf/water
Excerpt: Titration (66% N,N-dimethylformamide/water) pKa 5.5, 7.5, 11.2.

[5] = Stability of the crystal form; format: physicochemical; conditions: prolonged periods of time
Pharmacokinetics = format: in vivo; conditions: in words; tetrahydrate, oral
[6] = test system: Peptostreptococcus anaerobius; experiment: Activity against anaerobic cocci
[7] = Absorption following oral administration; format: in vivo
Peptostrept. intermedius = experiment: Activity against anaerobic cocci

CC1=C(C(=O)O)N2C(=O)C(NC(=O)[C@H](N)c3ccc4ccccc4c3)C2SC1 (stereo partly drawn) [7-(D-2-Naphthylglycylamido)-3-methyl-3-cephem-4-carboxylic acid]
orally active antibiotic [1]: potent orally active antibiotic
pharmacokinetics [2]: favorable pharmacokinetics
gram positive activity (gram positive): excellent gram positive activity

CC1=C(C(=O)O)N2C(=O)C(NC(=O)[C@H](N)c3ccc4ccccc4c3)C2SC1 (stereo partly drawn) [7-(D-2-naphthylglycylamido)-3-methyl-3-cephem-4-carboxylic acid tetrahydrate]
solubility in water ([3]; in words): only minimally soluble in water
solubility ([3]; pH 1.2): 8600 µg/mL
solubility ([3]; pH 2.0): 1700 µg/mL
solubility ([3]; pH 3.0): 200 µg/mL
solubility ([3]; pH 4.0): 200 µg/mL
solubility ([3]; pH 5.0): 200 µg/mL
solubility ([3]; pH 6.0): 300 µg/mL
solubility ([3]; pH 7.0): 800 µg/mL
solubility ([3]; pH 7.5): 1200 µg/mL
solubility ([3]; pH 8.0): 4100 µg/mL
solubility ([3]; pH 8.5): 7500 µg/mL
pKa ([4]; first value): 5.5
pKa ([4]; second value): 7.5
pKa ([4]; third value): 11.2
stability [5]: very stable for prolonged periods of time
pharmacokinetics (Pharmacokinetics): favorable pharmacokinetics
effective against anaerobic cocci [6]: effective
absorption following oral administration [7]: very well absorbed following oral administration
effective against anaerobic cocci (Peptostrept. intermedius): effective
